Measured values: ChEMBL document CHEMBL4507291 (2021)

Tests used:
[1] = target: Prostaglandin G/H synthase 1 (Homo sapiens) (UniProt P23219); test: Inhibition of Cyclooxygenase COX-1 at compound concentration of 10.0 uM in the Eurofins-Panlabs enzyme assay (Eurofins_assay_116020); settings: Compound concentration 10.0 uM
[2] = target: Platelet-derived growth factor receptor beta (Homo sapiens) (UniProt P09619); test: PDGFRB (PDGFR beta) Kinase screen; settings: Compound concentration 1.0 uM
[3] = test system: Mast/stem cell growth factor receptor Kit (Homo sapiens), P10721 [T670I]; test: KIT T670I Kinase screen; settings: Compound concentration 1.0 uM
Sequence of Mast/stem cell growth factor receptor Kit (Homo sapiens), P10721 [T670I] (P10721 whole entry T670I): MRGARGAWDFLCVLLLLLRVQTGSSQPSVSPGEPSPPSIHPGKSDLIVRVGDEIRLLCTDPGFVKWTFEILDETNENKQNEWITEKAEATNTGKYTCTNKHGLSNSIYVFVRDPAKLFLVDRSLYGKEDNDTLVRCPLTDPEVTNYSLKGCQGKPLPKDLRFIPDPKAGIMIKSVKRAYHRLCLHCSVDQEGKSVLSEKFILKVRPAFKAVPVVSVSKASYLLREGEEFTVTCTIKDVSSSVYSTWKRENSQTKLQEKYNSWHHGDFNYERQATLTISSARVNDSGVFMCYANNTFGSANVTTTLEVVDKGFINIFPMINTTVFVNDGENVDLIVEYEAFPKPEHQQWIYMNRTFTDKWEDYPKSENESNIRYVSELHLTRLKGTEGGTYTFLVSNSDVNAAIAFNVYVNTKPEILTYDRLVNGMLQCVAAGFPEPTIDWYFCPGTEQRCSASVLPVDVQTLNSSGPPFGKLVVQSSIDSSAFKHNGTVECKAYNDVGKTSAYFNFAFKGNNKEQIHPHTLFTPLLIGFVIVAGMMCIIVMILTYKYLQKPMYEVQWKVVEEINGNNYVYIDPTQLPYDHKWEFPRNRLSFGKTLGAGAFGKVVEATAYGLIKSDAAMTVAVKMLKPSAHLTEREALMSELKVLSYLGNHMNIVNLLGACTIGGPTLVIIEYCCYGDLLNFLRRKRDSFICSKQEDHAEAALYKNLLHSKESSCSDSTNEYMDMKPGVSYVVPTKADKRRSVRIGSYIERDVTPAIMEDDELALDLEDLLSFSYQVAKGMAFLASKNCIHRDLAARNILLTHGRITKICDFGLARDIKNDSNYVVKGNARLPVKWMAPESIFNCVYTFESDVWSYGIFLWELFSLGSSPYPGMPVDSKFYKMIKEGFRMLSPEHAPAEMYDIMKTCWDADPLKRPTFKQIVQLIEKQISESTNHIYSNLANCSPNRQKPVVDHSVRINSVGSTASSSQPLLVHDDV

[4] = target: Mitogen-activated protein kinase kinase kinase kinase 5 (Homo sapiens) (UniProt Q9Y4K4); test: MAP4K5 (KHS1) Kinase screen; settings: Compound concentration 1.0 uM
[5] = target: T1, Serine/threonine-protein kinase TAO2 (Homo sapiens) (UniProt Q9UL54); test: TAOK2 (TAO1) Kinase screen; settings: Compound concentration 1.0 uM
T1 sequence (whole entry): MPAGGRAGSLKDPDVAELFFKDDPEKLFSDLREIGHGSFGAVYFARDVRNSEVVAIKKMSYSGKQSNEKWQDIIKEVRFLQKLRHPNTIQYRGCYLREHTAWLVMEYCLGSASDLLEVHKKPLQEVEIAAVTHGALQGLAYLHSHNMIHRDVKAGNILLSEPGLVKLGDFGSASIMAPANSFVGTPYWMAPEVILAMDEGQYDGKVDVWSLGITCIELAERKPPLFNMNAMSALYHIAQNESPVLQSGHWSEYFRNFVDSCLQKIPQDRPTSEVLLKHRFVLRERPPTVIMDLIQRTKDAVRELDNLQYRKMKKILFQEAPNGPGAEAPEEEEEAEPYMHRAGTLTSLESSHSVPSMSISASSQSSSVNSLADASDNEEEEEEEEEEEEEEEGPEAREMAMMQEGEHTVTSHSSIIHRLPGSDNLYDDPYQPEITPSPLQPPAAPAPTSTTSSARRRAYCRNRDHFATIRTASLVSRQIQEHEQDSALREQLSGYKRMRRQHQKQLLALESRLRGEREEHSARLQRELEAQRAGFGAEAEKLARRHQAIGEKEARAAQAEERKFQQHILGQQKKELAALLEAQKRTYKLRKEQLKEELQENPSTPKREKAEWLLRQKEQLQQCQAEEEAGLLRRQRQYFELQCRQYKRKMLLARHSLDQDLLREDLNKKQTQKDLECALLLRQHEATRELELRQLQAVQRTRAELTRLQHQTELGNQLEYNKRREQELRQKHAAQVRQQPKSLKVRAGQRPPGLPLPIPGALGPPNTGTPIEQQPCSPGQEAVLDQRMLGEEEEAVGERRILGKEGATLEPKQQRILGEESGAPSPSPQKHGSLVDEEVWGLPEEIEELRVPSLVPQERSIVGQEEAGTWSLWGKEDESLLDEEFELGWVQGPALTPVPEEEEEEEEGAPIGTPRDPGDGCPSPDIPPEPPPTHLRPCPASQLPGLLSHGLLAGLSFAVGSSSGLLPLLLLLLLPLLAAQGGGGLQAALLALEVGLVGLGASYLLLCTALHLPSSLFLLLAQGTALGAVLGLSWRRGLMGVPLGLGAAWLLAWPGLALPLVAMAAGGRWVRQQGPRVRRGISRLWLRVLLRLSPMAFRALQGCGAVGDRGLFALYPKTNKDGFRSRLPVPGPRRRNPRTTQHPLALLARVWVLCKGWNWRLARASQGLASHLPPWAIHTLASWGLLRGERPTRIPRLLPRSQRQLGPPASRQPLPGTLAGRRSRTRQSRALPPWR

[6] = target: T2, Ephrin type-A receptor 3 (Homo sapiens) (UniProt P29320); test: EPHA3 Kinase screen; settings: Compound concentration 1.0 uM
T2 sequence (whole entry): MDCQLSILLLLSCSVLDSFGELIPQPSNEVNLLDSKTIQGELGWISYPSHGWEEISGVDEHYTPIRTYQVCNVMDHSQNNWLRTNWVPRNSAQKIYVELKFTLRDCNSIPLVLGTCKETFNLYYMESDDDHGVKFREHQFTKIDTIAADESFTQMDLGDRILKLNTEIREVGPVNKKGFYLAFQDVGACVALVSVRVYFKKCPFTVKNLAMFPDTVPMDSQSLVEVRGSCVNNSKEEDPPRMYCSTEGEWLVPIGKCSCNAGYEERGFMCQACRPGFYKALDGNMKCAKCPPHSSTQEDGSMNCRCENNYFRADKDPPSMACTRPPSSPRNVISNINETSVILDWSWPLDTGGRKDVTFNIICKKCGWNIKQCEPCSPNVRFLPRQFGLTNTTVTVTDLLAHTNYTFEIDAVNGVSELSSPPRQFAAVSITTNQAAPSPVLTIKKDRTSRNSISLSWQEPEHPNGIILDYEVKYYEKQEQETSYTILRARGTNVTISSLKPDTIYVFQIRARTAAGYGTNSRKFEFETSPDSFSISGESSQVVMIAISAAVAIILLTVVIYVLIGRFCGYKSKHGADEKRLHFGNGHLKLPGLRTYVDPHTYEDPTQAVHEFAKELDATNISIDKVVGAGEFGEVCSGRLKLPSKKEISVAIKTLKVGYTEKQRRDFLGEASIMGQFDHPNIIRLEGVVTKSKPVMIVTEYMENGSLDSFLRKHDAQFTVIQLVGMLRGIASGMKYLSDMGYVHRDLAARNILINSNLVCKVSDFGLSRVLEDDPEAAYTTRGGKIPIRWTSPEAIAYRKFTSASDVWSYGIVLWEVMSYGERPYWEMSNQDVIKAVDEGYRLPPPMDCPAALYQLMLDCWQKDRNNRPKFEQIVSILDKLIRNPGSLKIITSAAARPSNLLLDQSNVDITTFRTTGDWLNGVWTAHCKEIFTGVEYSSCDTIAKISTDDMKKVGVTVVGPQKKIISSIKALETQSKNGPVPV

[7] = target: PI3-kinase p110-delta/p85-alpha (Homo sapiens) (UniProt P27986+O00329); test: PIK3CD/PIK3R1 (p110 delta/p85 alpha) Kinase screen; assay type: protein-complex assay; settings: Compound concentration 1.0 uM
[8] = target: Platelet-derived growth factor receptor alpha (Homo sapiens) (UniProt P16234); test: PDGFRA (PDGFR alpha) Kinase screen; settings: Compound concentration 1.0 uM
Sequence of Platelet-derived growth factor receptor alpha (Homo sapiens) (P16234 whole entry, the tested form may be a part): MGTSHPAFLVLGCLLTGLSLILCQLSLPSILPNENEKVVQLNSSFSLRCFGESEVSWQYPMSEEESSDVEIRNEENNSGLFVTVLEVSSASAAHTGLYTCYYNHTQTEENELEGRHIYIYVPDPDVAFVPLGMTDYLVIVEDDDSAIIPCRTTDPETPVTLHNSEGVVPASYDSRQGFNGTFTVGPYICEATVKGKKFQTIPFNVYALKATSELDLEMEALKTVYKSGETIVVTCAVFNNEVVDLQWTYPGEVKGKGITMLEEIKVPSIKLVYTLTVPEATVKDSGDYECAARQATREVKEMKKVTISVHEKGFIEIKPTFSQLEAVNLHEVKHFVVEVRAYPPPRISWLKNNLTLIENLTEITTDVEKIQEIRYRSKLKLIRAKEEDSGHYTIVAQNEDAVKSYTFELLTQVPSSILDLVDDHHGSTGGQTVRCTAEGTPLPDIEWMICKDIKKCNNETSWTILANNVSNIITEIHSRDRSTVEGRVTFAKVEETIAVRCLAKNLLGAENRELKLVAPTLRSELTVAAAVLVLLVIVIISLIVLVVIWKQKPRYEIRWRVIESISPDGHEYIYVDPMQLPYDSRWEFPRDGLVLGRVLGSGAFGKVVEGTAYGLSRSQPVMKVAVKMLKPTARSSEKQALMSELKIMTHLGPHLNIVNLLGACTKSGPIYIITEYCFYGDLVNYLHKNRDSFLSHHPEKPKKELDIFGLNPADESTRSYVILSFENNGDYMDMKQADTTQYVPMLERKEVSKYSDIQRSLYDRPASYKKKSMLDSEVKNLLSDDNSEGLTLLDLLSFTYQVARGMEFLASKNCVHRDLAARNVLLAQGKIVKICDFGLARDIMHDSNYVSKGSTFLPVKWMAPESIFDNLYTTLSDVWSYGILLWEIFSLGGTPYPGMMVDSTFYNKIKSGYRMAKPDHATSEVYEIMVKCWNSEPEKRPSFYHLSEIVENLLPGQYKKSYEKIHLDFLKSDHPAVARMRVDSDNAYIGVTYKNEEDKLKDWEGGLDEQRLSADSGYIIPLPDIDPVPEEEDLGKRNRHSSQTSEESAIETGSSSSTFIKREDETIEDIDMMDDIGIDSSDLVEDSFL

[9] = target: Phosphatidylinositol 4-phosphate 3-kinase C2 domain-containing subunit beta (Homo sapiens) (UniProt O00750); test: PIK3C2B (PI3K-C2 beta) Kinase screen; settings: Compound concentration 1.0 uM
Sequence of Phosphatidylinositol 4-phosphate 3-kinase C2 domain-containing subunit beta (Homo sapiens) (O00750 whole entry, the tested form may be a part): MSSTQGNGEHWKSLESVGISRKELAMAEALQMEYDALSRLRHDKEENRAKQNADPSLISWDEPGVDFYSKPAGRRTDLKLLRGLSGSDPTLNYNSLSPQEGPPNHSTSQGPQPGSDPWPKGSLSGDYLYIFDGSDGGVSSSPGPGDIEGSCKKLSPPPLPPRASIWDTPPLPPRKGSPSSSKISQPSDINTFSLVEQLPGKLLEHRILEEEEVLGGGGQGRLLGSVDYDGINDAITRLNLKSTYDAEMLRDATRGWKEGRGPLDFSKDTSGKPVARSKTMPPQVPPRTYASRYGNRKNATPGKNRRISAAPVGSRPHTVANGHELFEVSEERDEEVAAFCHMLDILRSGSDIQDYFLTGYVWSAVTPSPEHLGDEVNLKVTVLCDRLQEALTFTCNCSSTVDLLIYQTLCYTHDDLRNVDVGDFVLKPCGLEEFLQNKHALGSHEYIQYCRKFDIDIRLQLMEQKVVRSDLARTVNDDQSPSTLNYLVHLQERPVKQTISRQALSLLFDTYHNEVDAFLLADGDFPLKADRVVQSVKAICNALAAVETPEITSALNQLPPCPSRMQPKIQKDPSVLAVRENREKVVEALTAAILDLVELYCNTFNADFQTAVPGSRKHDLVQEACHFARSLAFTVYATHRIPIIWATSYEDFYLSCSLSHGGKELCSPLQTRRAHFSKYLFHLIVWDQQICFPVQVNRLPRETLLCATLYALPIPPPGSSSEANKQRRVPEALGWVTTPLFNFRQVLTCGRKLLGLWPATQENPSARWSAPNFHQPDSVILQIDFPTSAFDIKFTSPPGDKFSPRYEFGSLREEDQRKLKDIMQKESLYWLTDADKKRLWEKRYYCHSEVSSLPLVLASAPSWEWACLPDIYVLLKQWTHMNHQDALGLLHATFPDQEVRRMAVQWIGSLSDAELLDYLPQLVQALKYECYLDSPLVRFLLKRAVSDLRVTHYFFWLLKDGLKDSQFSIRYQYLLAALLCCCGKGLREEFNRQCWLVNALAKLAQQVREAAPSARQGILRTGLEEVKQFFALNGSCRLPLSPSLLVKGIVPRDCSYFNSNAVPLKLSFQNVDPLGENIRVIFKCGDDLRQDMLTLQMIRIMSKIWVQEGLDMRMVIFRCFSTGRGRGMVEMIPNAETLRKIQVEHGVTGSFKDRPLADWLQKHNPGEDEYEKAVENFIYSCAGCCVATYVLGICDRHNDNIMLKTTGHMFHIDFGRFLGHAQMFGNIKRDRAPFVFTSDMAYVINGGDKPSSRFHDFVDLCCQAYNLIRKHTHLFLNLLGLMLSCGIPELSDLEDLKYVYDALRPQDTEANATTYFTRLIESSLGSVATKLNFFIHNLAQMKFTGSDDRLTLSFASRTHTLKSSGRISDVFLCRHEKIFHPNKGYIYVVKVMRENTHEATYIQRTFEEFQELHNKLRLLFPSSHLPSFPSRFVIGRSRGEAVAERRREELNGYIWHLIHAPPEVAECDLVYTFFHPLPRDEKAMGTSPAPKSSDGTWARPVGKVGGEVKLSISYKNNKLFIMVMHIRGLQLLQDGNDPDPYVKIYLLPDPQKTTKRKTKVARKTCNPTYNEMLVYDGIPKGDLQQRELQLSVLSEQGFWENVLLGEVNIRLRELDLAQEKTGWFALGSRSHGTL

Measured: inhibition

Sequence of Platelet-derived growth factor receptor beta (Homo sapiens) (P09619 whole entry): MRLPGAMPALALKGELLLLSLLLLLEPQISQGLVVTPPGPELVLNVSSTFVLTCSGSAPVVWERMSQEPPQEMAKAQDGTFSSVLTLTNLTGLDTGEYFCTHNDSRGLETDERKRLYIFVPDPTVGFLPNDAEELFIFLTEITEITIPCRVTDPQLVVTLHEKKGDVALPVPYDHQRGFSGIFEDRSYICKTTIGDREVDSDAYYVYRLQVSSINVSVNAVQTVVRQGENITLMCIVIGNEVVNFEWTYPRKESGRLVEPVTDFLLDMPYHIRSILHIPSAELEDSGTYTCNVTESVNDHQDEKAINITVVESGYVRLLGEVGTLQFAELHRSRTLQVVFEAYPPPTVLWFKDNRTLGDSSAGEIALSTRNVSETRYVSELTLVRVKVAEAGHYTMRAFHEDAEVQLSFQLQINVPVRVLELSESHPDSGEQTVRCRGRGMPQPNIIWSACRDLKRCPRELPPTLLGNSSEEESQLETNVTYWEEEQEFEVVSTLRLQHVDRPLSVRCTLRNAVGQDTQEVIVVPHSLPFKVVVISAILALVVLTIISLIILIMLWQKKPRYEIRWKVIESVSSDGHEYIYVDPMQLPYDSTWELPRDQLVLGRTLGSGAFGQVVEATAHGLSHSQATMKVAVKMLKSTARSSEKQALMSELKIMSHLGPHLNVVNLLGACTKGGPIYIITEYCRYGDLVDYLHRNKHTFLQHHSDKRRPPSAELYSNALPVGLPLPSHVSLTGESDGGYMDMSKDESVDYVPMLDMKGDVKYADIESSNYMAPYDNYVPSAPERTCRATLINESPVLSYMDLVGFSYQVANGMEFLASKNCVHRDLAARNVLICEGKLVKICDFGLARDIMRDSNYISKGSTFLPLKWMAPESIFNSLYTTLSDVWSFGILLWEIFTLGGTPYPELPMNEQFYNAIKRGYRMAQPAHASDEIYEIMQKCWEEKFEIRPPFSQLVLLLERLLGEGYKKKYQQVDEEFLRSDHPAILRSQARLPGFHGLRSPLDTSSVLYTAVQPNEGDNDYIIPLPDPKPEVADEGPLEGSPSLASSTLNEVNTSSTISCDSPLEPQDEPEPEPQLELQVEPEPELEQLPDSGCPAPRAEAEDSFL

C[C@@H]1CN(c2cc(-c3n[nH]c4ccc(OC5(C)CC5)cc34)ncn2)C[C@H](C)O1 [MLi-2]
inactive: [1] 9% | [2] 6.43% | [3] -0.692% | [4] 3.26% | [5] -2.67% | [6] -3.28% | [7] 2.08% | [8] 0.395% | [9] -3.26%
